Data: ChEMBL document CHEMBL5465560, “Selectivity Literature for EUbOPEN Chemogenomic Library” (2024)

Assays:
[1] = target: T1, Mitogen-activated protein kinase kinase kinase 3 (Homo sapiens) (UniProt Q99759); assay: Selectivity interaction (KinomeScan (DiscoverX)) EUB0001079a MAP3K3; details: at 1 µM
T1 sequence (whole entry): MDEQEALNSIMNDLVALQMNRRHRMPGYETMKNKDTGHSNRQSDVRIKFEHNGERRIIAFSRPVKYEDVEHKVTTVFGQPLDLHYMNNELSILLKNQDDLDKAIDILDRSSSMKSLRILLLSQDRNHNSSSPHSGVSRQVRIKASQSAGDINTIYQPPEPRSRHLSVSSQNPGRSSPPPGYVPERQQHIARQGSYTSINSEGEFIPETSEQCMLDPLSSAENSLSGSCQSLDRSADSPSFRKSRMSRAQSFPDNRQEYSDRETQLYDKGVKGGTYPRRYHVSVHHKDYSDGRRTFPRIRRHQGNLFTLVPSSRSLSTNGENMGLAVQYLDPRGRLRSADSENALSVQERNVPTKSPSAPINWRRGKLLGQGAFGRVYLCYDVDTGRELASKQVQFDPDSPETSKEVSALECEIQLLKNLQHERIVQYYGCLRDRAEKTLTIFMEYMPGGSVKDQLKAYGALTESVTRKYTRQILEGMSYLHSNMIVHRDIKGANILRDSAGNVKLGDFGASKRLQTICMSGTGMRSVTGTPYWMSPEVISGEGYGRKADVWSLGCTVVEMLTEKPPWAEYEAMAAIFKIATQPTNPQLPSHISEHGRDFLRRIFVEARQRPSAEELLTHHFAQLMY

[2] = target: cAMP-dependent protein kinase catalytic subunit alpha (Homo sapiens, UniProt P17612); assay: Selectivity interaction (KinomeScan (DiscoverX)) EUB0001079a PRKACA; details: at 1 µM
[3] = target: T2, TGF-beta receptor type-1 (Homo sapiens) (UniProt P36897); assay: Selectivity interaction (KinomeScan (DiscoverX)) EUB0001079a TGFBR1; details: at 1 µM
T2 sequence (whole entry): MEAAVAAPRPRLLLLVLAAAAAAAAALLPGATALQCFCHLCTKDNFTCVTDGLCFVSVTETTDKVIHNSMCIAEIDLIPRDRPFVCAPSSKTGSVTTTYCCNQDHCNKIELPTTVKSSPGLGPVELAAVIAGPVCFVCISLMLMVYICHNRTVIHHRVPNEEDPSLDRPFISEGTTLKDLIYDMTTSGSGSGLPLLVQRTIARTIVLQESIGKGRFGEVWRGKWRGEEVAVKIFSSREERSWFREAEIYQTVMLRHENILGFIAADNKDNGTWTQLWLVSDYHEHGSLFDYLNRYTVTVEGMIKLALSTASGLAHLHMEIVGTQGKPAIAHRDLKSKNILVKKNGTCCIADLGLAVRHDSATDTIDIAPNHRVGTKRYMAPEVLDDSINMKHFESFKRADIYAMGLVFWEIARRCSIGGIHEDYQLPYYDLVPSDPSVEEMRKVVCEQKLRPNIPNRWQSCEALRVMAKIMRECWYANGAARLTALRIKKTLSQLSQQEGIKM

[4] = target: Tyrosine-protein kinase CSK (Homo sapiens) (UniProt P41240); assay: Selectivity interaction (KinomeScan (DiscoverX)) EUB0000666a CSK; details: at 10 µM
Sequence of Tyrosine-protein kinase CSK (Homo sapiens) (P41240 2-450 limits assumed): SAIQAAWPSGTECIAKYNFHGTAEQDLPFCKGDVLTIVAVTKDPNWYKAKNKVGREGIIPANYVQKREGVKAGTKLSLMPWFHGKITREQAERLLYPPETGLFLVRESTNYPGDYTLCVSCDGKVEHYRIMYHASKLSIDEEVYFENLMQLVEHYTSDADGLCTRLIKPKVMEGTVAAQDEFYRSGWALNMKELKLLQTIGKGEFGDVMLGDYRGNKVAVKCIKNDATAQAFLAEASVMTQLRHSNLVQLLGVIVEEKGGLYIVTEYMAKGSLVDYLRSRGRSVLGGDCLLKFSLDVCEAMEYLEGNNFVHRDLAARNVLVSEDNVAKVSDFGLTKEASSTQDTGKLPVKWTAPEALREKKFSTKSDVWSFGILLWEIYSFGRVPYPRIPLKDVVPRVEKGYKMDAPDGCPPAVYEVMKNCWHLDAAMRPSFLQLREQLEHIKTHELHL

[5] = target: Mitogen-activated protein kinase 10 (Homo sapiens, UniProt P53779); assay: Selectivity interaction (Millipore kinase profiler) EUB0000124b MAPK10; details: at 10 µM
Sequence of Mitogen-activated protein kinase 10 (P53779 whole entry): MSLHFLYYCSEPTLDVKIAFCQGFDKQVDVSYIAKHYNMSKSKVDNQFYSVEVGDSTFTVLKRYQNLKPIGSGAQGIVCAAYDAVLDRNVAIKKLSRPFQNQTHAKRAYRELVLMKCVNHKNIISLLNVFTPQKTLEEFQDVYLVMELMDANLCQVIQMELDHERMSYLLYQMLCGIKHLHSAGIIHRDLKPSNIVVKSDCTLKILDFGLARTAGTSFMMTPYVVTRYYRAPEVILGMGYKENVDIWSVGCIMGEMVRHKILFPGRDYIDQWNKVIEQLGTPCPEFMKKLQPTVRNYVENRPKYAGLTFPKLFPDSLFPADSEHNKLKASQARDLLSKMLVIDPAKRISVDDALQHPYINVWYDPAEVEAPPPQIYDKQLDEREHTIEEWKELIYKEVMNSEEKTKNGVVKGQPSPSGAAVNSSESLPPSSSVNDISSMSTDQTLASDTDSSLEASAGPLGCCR

[6] = target: Protein kinase C beta type (Homo sapiens, UniProt P05771); assay: Selectivity interaction (Millipore kinase profiler) EUB0000124b PRKCB; details: at 10 µM
[7] = tested on: Hepatocyte growth factor receptor (Homo sapiens), P08581 [M1250T]; details: at 10 µM
Sequence of Hepatocyte growth factor receptor (Homo sapiens), P08581 [M1250T] (P08581 whole entry M1250T): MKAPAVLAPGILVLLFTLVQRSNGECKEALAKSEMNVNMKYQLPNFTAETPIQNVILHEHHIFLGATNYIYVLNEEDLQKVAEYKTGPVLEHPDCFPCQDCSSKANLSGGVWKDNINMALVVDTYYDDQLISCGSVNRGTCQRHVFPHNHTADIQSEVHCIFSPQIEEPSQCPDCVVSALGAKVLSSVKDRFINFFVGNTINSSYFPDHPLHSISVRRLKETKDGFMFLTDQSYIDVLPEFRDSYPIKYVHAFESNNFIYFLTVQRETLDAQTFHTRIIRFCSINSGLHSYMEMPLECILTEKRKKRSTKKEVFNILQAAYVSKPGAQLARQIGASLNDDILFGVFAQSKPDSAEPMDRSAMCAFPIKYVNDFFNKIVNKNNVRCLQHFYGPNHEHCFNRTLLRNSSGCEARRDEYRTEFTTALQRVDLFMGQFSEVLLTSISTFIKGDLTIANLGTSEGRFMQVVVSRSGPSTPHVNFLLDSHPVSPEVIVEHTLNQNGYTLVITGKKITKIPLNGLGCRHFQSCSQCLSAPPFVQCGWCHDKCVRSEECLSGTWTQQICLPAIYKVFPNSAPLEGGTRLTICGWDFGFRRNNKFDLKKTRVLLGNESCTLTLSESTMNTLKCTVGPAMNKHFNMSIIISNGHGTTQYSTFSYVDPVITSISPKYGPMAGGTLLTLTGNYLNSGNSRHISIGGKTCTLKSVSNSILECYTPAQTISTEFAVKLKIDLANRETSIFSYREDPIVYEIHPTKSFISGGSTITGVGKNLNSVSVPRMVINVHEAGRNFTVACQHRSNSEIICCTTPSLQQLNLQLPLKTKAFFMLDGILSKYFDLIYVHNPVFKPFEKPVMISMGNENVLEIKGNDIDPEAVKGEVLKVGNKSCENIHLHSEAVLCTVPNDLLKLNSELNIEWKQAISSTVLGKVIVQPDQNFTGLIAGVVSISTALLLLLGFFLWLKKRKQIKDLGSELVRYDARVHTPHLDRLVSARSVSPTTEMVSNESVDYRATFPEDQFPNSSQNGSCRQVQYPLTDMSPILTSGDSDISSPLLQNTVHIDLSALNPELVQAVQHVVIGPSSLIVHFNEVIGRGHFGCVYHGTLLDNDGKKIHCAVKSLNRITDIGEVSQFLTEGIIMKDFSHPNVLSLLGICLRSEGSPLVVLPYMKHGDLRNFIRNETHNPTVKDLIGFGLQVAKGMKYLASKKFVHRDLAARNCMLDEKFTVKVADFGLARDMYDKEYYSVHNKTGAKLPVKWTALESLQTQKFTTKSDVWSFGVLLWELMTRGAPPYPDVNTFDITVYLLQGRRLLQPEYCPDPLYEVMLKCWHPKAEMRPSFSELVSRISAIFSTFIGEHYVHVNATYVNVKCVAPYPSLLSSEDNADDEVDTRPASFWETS

[8] = target: RAC-alpha serine/threonine-protein kinase (Homo sapiens, UniProt P31749); assay: Selectivity interaction (Kinase panel (Z-LYTE Assay)) EUB0001632a AKT1; details: at 10 µM
Sequence of RAC-alpha serine/threonine-protein kinase (P31749 whole entry): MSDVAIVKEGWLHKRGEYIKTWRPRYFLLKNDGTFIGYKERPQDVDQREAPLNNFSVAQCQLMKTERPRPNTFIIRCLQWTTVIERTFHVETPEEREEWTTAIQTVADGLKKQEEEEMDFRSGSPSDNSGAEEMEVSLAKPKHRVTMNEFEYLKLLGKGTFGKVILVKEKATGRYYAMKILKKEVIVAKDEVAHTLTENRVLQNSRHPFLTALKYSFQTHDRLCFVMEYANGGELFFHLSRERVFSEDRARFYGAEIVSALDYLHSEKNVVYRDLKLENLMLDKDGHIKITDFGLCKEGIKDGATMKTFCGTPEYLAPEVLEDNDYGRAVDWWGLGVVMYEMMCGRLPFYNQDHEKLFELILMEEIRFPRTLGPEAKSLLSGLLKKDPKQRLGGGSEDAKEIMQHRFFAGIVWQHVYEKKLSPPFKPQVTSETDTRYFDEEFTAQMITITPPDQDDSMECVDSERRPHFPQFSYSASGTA

[9] = target: Tyrosine-protein kinase BTK (Homo sapiens, UniProt Q06187); assay: Selectivity interaction (ActivX KiNativ screen (kinase selectivity in THP-1 cell lysates)) EUB0000639a BTK; assay type: subcellular; details: lysate, at 0.2 µM
Sequence of Tyrosine-protein kinase BTK (Q06187 whole entry): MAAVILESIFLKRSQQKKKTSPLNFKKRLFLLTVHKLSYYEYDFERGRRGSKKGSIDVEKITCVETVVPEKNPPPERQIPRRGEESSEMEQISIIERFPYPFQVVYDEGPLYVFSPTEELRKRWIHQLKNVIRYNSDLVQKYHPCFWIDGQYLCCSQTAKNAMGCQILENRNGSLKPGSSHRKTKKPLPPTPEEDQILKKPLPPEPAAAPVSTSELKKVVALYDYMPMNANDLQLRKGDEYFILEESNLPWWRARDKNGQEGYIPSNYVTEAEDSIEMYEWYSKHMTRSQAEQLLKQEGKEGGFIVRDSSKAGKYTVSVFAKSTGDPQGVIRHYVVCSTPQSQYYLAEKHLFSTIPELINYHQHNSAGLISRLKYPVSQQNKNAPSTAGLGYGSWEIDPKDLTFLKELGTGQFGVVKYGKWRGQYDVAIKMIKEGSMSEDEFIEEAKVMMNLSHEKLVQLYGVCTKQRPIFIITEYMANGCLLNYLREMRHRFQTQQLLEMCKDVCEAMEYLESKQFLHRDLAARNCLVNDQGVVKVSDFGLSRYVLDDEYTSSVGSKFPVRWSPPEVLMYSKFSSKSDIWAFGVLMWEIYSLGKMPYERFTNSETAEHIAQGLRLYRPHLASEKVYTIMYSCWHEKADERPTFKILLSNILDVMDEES

[10] = target: Serine/threonine-protein kinase mTOR (Homo sapiens, UniProt P42345); assay: Selectivity interaction (Kinase panel (Invitrogen)) EUB0000639a MTOR; details: at 200 nM
[11] = target: Serine/threonine-protein kinase PLK1 (Homo sapiens, UniProt P53350); assay: Selectivity interaction (ActivX KiNativ screen (kinase selectivity in THP-1 cell lysates)) EUB0000639a PLK1; assay type: subcellular; details: lysate, at 0.04 µM
Sequence of Serine/threonine-protein kinase PLK1 (P53350 whole entry): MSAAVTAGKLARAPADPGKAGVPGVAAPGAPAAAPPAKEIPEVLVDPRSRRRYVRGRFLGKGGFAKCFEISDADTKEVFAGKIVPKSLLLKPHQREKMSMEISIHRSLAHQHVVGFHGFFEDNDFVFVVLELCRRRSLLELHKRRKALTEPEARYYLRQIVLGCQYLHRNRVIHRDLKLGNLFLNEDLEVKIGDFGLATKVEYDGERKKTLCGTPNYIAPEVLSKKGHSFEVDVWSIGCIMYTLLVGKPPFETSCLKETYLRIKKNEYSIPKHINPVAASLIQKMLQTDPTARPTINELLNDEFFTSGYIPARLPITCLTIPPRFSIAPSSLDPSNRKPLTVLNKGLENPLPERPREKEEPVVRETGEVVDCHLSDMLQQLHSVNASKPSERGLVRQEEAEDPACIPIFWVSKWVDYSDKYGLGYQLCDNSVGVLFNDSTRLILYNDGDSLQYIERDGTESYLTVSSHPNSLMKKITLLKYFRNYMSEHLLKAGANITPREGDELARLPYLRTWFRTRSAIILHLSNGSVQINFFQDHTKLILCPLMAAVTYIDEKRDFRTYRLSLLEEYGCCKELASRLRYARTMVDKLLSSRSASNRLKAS

[12] = target: T3, Megakaryocyte-associated tyrosine-protein kinase (Homo sapiens) (UniProt P42679); assay: Selectivity interaction (KinomeScan (DiscoverX)) EUB0000607a MATK; details: at 10 µM
T3 sequence (whole entry): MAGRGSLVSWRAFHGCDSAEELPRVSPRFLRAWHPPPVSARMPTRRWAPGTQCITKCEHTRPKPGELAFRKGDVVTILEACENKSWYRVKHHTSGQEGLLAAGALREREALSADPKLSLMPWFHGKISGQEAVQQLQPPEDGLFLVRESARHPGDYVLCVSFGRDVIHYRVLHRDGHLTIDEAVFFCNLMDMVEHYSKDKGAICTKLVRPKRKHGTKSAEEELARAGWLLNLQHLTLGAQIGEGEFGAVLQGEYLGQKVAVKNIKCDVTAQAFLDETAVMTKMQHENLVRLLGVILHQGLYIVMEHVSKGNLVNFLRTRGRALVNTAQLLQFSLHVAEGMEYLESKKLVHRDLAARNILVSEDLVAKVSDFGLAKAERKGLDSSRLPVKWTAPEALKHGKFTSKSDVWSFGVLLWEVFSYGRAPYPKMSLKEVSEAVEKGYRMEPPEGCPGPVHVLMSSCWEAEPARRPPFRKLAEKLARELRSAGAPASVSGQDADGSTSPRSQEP

[13] = target: T4, Dual specificity mitogen-activated protein kinase kinase 7 (Homo sapiens) (UniProt O14733); assay: Selectivity interaction (KinomeScan (DiscoverX)) EUB0000695a MAP2K7; details: at 100 nM
T4 sequence (whole entry): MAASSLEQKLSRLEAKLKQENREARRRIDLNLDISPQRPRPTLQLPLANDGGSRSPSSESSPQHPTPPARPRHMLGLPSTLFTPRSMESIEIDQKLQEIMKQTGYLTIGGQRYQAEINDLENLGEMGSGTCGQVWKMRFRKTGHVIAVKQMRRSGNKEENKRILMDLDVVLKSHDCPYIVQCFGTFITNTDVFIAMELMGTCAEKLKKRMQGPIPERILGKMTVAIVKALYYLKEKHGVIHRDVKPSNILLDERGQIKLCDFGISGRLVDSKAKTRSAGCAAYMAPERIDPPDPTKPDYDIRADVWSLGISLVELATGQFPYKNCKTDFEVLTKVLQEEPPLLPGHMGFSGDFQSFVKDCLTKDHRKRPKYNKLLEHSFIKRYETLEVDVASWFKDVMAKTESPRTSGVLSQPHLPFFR

[14] = target: Macrophage colony-stimulating factor 1 receptor (Homo sapiens) (UniProt P07333); assay: Selectivity interaction (KinomeScan (DiscoverX)) EUB0000618a CSF1R; details: at 10 µM
Sequence of Macrophage colony-stimulating factor 1 receptor (Homo sapiens) (P07333 whole entry): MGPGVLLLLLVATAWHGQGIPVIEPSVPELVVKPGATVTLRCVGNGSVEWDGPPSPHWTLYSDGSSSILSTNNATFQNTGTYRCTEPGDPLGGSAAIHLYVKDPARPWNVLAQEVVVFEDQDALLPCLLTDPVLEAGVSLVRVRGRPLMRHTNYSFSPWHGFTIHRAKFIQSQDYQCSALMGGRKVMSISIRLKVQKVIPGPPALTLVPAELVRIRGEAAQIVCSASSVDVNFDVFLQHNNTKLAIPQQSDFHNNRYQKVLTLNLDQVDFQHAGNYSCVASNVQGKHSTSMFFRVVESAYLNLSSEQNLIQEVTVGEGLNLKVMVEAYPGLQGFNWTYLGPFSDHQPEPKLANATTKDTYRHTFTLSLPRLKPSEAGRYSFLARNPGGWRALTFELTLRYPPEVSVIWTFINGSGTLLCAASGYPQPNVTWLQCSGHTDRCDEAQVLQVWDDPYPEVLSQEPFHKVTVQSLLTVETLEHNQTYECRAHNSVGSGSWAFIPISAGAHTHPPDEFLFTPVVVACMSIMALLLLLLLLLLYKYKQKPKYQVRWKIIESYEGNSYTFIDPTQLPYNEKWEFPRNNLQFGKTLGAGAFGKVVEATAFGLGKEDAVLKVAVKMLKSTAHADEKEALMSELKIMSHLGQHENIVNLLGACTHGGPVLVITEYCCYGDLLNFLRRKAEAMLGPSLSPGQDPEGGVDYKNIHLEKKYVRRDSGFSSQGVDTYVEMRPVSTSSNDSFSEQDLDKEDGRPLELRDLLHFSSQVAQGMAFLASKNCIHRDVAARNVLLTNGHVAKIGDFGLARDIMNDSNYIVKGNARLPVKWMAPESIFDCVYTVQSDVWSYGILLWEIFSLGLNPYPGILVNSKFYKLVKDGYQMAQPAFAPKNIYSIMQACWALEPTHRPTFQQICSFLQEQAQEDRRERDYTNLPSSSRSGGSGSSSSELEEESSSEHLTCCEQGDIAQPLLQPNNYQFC

Compound `Nc1cnc(N2CCc3cc(S(=O)(=O)Nc4c(F)cc(Cl)cc4F)cc(N4CCCC4=O)c32)nc1` [TP-020n] has a % of control [1] of 97%, a % of control [2] of 100% and a % of control [3] of 100%.

In the case of `O=C(NOC[C@H](O)CO)c1ccc(F)c(F)c1Nc1ccc(I)cc1F`, the % of control [4] is reported as 100%.

For `CC(=O)Nc1cccc(-n2c(=O)n(C3CC3)c(=O)c3c(Nc4ccc(I)cc4F)n(C)c(=O)c(C)c32)c1`, the % of control [5] was 76% and the % of control [6] was 102%.

`Cc1cc([C@@H](C)Nc2ccccc2C(=O)O)c2nc(N3CCOCC3)cc(=O)n2c1` [AZD-6482] gave a % of control [7] of 87%.

`Cn1cc(-n2cnc3c(NCc4nc5cc(Cl)c(Cl)cc5[nH]4)nc(N4CCOCC4)nc32)cn1` gave a % of control [8] of -0.23%.

`CC[C@@H]1[C@H](F)C(=O)N[C@@H]1COc1nccc2cc(C(N)=O)c(OC)cc12` [ZIMLOVISERTIB] was tested, and the % of inhibition [9] was -2.7%, the % of inhibition [10] was 3.37% and the % of inhibition [11] was 3.7%.

With `CNC(=O)Nc1ccc(-c2nc(N3CC4CCC(C3)O4)c3cnn(C4CCC5(CC4)OCCO5)c3n2)cc1` the % of control [12] was 100%.

With `Cc1cc(F)c(C(=O)Nc2cccc(-c3nncn3C(C)C)n2)cc1-n1cnc(C2CC2)c1` the % of control [13] was 95%.

`O[C@H]1CC[C@H](Nc2ncc3nc(Nc4c(F)cc(F)cc4F)n([C@H]4CCOC4)c3n2)CC1` was tested, and the % of control [14] was 64%.
